From US9969775B2, “CGRP antagonist peptides” (Ferring B.V., priority 2015, dated 2018)
Like-named read-outs stand apart in the source and are kept apart here. Numbered stars: 1 amine (or outer) side, 2 acyl side, 3 side chain; on linkers, the order of the positions; unused ones are H or OH. Bridge positions count the residues as written; N and C are the ends. Square brackets hold non-standard residues; d marks the D form. Peptide text beside a SMILES is read from it. * marks the point of attachment. Phe(3-CONH2) = NC(=O)c1cccc(C[C@H](N)C(=O)O)c1; X5 = O=C([C@H](Cc1ccc(CO)cc1)N[*:1])[*:2]; Picolinoyl(5-F) = O=C(c1ccc(F)cn1)*; Orn(iPr) = CC(C)NCCC[C@H](N)C(=O)O; Benzoyl(4-F) = O=C(c1ccc(F)cc1)*; Oxazole2carbonyl = O=C(c1ncco1)*; 3Pal = N[C@@H](Cc1cccnc1)C(=O)O; Agp = N=C(N)NC[C@H](N)C(=O)O; Picolinoyl = O=C(c1ccccn1)*; ΔPro = O=C(O)[C@@H]1C=CCN1; Dap = NC[C@H](N)C(=O)O; Bz = O=C(c1ccccc1)*

Key:
[1] = target: T1, hCGRP receptor (CALCRL:RAMP1) (Homo sapiens, UniProt O60894+Q16602); assay: CGRP receptor antagonist activity measured by cAMP assay (HTRF); format: cell-based; conditions: for Emax: read-out: hCGRP-R Efficacy Antag (%) Ave; for IC50: GeneBLAzer CALCRL:RAMP1-CRE-bla Freestyle 293F cells, 30 minutes
T1 construct: host or cells: GeneBLAzer CALCRL:RAMP1-CRE-bla Freestyle 293F

[2] = target: T2, hAM2 receptor (CALCRL:RAMP3) (Homo sapiens, UniProt O60896+Q16602); assay: AM2 receptor antagonist activity measured by cAMP assay (HTRF); format: cell-based; conditions: for Emax: read-out: hAM2-R Efficacy Antag (%) Ave; for IC50: GeneBLAzer CALCRL:RAMP3-CRE-bla Freestyle 293F cells; for selectivity ratio CGRP/AM2: selectivity ratio for hCGRP over hAM2, calculated from the IC50 values
T2 construct: expressed in transfected cells; host or cells: GeneBLAzer CALCRL:RAMP3-CRE-bla Freestyle 293F

[3] = % MPE: percent of the maximal possible effect, agonist human α-CGRP
[4] = agonist human α-CGRP, read-out: hCGRP-R IC50 Ave
[5] = % MPE: percent of the maximal possible effect, agonist human adrenomedullin
[6] = agonist human adrenomedullin, read-out: hAM2-R IC50 Ave

T1 sequence (Q16602 23-461): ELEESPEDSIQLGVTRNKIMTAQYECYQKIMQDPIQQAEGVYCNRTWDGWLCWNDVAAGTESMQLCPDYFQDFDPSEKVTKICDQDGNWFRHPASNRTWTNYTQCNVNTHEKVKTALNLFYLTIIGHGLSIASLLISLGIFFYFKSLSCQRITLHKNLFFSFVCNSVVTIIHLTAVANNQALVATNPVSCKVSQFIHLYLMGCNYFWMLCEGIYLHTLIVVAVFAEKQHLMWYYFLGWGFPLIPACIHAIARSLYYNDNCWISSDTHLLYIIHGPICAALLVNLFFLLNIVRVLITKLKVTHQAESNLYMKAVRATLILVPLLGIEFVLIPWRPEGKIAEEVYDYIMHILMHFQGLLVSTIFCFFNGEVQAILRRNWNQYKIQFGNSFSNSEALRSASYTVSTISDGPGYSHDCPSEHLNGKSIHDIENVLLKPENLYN
T1 sequence (O60894 27-148): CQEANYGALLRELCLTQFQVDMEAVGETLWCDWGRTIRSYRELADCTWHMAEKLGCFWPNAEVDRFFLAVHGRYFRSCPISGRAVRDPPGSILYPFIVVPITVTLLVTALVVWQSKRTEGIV
T2 sequence (Q16602 23-461): as the sequence (Q16602 23-461) above
T2 sequence (O60896 24-148): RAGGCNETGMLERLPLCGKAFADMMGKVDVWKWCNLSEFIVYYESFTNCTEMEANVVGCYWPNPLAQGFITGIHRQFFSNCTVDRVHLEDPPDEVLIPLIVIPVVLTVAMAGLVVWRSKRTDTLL

SMILES | Emax [1, 3] [%] | IC50 [1, 4] [nM] | Emax [2, 5] [%] | IC50 [2, 6] [nM] | selectivity ratio CGRP/AM2 [2] | IC50 ([1]; hCGRP-R IC50 Ave, agonist human α-CGRP) [nM] | Emax [1] [%] | IC50 ([2]; hAM2-R IC50 Ave, agonist human adrenomedullin) [nM] | Emax [2] [%]
CC(C)NCCC[C@@H]1NC(=O)[C@@H](NC(=O)[C@H](Cc2ccc(O)cc2)NC(=O)[C@H](NC(=O)c2ccc(F)cn2)C(C)C)CSSC[C@@H](C(=O)N[C@@H](Cc2cccnc2)C(N)=O)NC(=O)[C@H](Cc2cccc(C(N)=O)c2)NC(=O)[C@@H]2C=CCN2C(=O)CNC(=O)[C@H](C(C)C)NC(=O)[C@H](CC(=O)O)NC1=O [Compound 68, Picolinoyl(5-F)-D-Val-Tyr-c(Cys-Orn(iPr)-Asp-Val-Gly-Dhp-Phe(3-Cbm)-Cys)-3Pal-NH2] ({Picolinoyl(5-F)}-[dV]YC[Orn(iPr)]DVG[ΔPro][Phe(3-CONH2)]C[3Pal]-NH2; disulfide 3-10) | 101 | 0.06 | 100 | 18 | 300 | – | – | – | –
CC(C)[C@@H]1NC(=O)[C@H](CC(=O)O)NC(=O)[C@H](CNC(=N)N)NC(=O)[C@@H](NC(=O)[C@H](Cc2ccc(O)cc2)NC(=O)[C@H](NC(=O)c2ccc(F)cc2)C(C)C)CSSC[C@@H](C(=O)N[C@@H](Cc2cccnc2)C(N)=O)NC(=O)[C@H](Cc2ccccc2)NC(=O)[C@@H]2CCCN2C(=O)CNC1=O [Ref. Cpd. 1, Bz(4-F)-D-Val-Tyr-c(Cys-Agp-Asp-Val-Gly-Pro-Phe-Cys)-3Pal-NH2, reference compound] ({Benzoyl(4-F)}-[dV]YC[Agp]DVGPFC[3Pal]-NH2; disulfide 3-10) | 100 | – | 98 | – | – | – | – | – | –
CC(C)[C@@H]1NC(=O)[C@H](CC(=O)O)NC(=O)[C@H](CN)NC(=O)[C@@H](NC(=O)[C@H](Cc2ccc(O)cc2)NC(=O)[C@H](NC(=O)c2ccccc2)C(C)C)CSSC[C@@H](C(=O)N[C@@H](Cc2cccnc2)C(N)=O)NC(=O)[C@H](Cc2ccccc2)NC(=O)[C@@H]2CCCN2C(=O)CNC1=O [Ref. Cpd. 2, Bz-D-Val-Tyr-c(Cys-Dpr-Asp-Val-Gly-Pro-Phe-Cys)-3Pal-NH2, reference compound] (Bz-[dV]YC[Dap]DVGPFC[3Pal]-NH2; disulfide 3-10) | – | – | – | – | 387 | 0.52 | 100 | 200 | 100

Now from value to compound, other results behind:

Emax [1, 3] [%] | IC50 [1, 4] [nM] | Emax [2, 5] [%] | IC50 [2, 6] [nM] | selectivity ratio CGRP/AM2 [2] | SMILES | IC50 ([1]; hCGRP-R IC50 Ave, agonist human α-CGRP) [nM] | Emax [1] [%] | IC50 ([2]; hAM2-R IC50 Ave, agonist human adrenomedullin) [nM] | Emax [2] [%]
100 | 0.13 | 100 | 64 | 497 | CC(C)NCCC[C@@H]1NC(=O)[C@@H](NC(=O)[C@H](Cc2ccc(O)cc2)NC(=O)[C@H](NC(=O)c2ccccn2)C(C)C)CSSC[C@@H](C(=O)N[C@@H](Cc2cccnc2)C(N)=O)NC(=O)[C@H](Cc2ccc(CO)cc2)NC(=O)[C@@H]2C=CCN2C(=O)CNC(=O)[C@H](C(C)C)NC(=O)[C@H](CC(=O)O)NC1=O [Compound 69, Picolinoyl-D-Val-Tyr-c(Cys-Orn(iPr)-Asp-Val-Gly-Dhp-Phe(4-CH2OH)-Cys)-3Pal-NH2] (Picolinoyl-[dV]YC[Orn(iPr)]DVG[ΔPro][X5]C[3Pal]-NH2; disulfide 3-10) | – | – | – | –
100 | 0.15 | 100 | 107 | 727 | CC(C)NCCC[C@@H]1NC(=O)[C@@H](NC(=O)[C@H](Cc2ccc(O)cc2)NC(=O)[C@H](NC(=O)c2ncco2)C(C)C)CSSC[C@@H](C(=O)N[C@@H](Cc2cccnc2)C(N)=O)NC(=O)[C@H](Cc2ccc(CO)cc2)NC(=O)[C@@H]2C=CCN2C(=O)CNC(=O)[C@H](C(C)C)NC(=O)[C@H](CC(=O)O)NC1=O [Compound 70, Oxazole-2-carbonyl-D-Val-Tyr-c(Cys-Orn(iPr)-Asp-Val-Gly-Dhp-Phe(4-CH2OH)-Cys)-3Pal-NH2] (Oxazole2carbonyl-[dV]YC[Orn(iPr)]DVG[ΔPro][X5]C[3Pal]-NH2; disulfide 3-10) | – | – | – | –
